According to patent US20170136008A1, “OXABICYCLOHEPTANES AND OXABICYCLOHEPTENES FOR THE TREATMENT OF OVARIAN CANCER” (priority 2014, published 2017):

Key:
[1] = tested on: OVCAR-8 NT shRNA cells; experiment: Cell viability (MTT) assay, OVCAR-8 NT shRNA; format: cell-based; settings: Homo sapiens; OVCAR-8 NT shRNA (control)
Procedure: (§1) Cell survival was measured by the 3-(4,5-dimethylthiazol-2-yl)-2,5-diphenyltetrazolium bromide (MTT, Invitrogen) assay. Cells were seeded at a density of 5,000 cells per well in 96-well plates and incubated at 37° C. in humidified 5% CO2 for 24 hours. The 50% inhibitory concentration (IC50) values were defined as the drug concentrations required to reduce cellular proliferation to 50% of the untreated control well. […] All MTT assays were carried out according to the manufacturer's instructions (Molecular Probes, Eugen, Oreg.). Absorbance values were determined at […] on a Spectra Max 250 spectrophotometer (Molecular Devices, Sunnyvale, Calif.). All MTT assays were performed in triplicate. […] Cells were treated with both drugs for 72 h. Cell viability was analyzed via the MTT assay as described above. Experiments were performed in triplicate, and the data are presented as a percent mean±SD.
(§2) To stably knockdown expression of PP2AC, a pLKO.1-puro plasmid-based […] shRNA targeting the sequence: […] (clone ID:TRCN0000002483, Sigma-Aldrich) was employed (PP2AC-shRNA). Additionally, a non-targeting shRNA plasmid (NT-shRNA) that targets no known human sequence was utilized as a control. […]

[2] = tested on: HEK 293 human embryonic kidney cell lines overexpressing Pgp, MRP1, or ABCG2; experiment: IC50 in ABC transporter-overexpressing HEK 293 lines; format: cell-based; settings: HEK 293 overexpressing Pgp
Procedure: When HEK 293 human embryonic kidney cell lines overexpressing Pgp, MRP1, or ABCG2 (Robey, R. W. et al. 2005) were treated with equal concentration of LB100, the IC50s of the transfected lines were not different compared with parent (non-transporter-expressing) cells or in the presence of an inhibitor (tariquidar) (FIG. 5).

[3] = tested on: ovarian cancer cell lines; experiment: MTT cytotoxicity assay, ovarian cancer cell line panel; format: cell-based; settings: Homo sapiens, SK-OV-3; ovarian lines other than SKOV-3
Procedure: as §1
SKOV-3 and OVCAR-8 cells have previously been described as p53 null and harboring an inactivating p53 mutation, respectively (Debernardis, D. et al. 1997). […] The […] carry a BRCA2 missense (n) and STOP (s) mutation, respectively (Langdon, S. P. et al. 1988).

[4] = tested on: OVCAR-8 PP2Ac shRNA-expressing cells; experiment: Cell viability (MTT) assay, OVCAR-8 PP2Ac shRNA; format: cell-based, human; settings: Homo sapiens; OVCAR-8 PP2Ac shRNA (knockdown)
Procedure: as §1, §2

[5] = tested on: PEO1-Missense (PEO-1m) ovarian cancer cell line; experiment: MTT cytotoxicity assay, PEO1-Missense; format: cell-based, human; settings: Homo sapiens, read-out: IC50, viability of ovarian cancer cell line
Procedure: (§3) SKOV-3 ovarian cancer cells were purchased from American Type Culture Collection (ATCC) (Manassas, Va.). SKOV-3 cells were cultured in McCoy's 5A medium (ATCC, Manassas, Va.) supplemented with 10% fetal bovine serum and 100 units/mL penicillin G sodium, 100 ug/mL streptomycin sulfate, and 292 μg/ml, L-glutamine (BioWhittaker, Wakersville, Md.). Luciferase-expressing cells were generated by infecting SKOV-3 cells with pCLNCX-luciferase retrovirus (SKOV-3-Luc) as previously reported (Wei, B. R. et al. 2009). Human OVCAR-8 ovarian cancer cells were provided by the National Cancer Institute (part of the NCI-60 collection). The PEO1, PEO4, and PEO6 ovarian cancer cell lines have previously been characterized (Langdon, S. P. et al. 1988) and were kindly provided by Dr. Ian Goldlust (National Center for Advancing Translational Sciences, Shady Grove, Md.). […]
(§4) Cell survival was measured by the 3-(4,5-dimethylthiazol-2-yl)-2,5-diphenyltetrazolium bromide (MTT, Invitrogen) assay. […] Absorbance values were determined at […] on a Spectra Max 250 spectrophotometer (Molecular Devices, Sunnyvale, Calif.). […] Cell viability was analyzed via the MTT assay as described above. […]

[6] = tested on: PEO1-STOP (PEO-1s) ovarian cancer cell line; experiment: MTT cytotoxicity assay, PEO1-STOP; format: cell-based, human; settings: Homo sapiens, read-out: IC50, viability of ovarian cancer cell line
Procedure: as §3, §4

[7] = tested on: DNA damage response, checkpoint and apoptosis proteins in SKOV-3 cells; experiment: Immunoblotting, SKOV-3 cells; format: cell-based, human
Procedure: Whole cell and homogenized tumor tissues were lysed in NP-40 lysis buffer [50 mM Tris/HCl, pH 7.4, 150 mM NaCl and 1% Nonidet P40, supplemented with Complete Protrase Inhibitor Cocktail tablets and PhosStop phosphatase inhibitors (Roche, Indianapolis, Ind.)] and prepared as previously described (Madigan, J. P. et al. 2009). Protein (40 μg) was resolved on SDS/PAGE (12% or 15% gels) and transferred onto Immobilon PVDF membrane. The membrane was then blocked for 1 hour at room temperature in 5% (w/v) non-fat milk in TBS-Tween and probed overnight with primary antibodies. After extensive washing, cells were probed with anti-rabbit or anti-mouse IgG-horseradish per oxidase (HRP)-conjugated secondary antibodies (Cell Signaling Technology, Danvers, Mass.) in blocking buffer for 1 h. Membranes were subsequently incubated in Immobilon Western blot Chemiluminescent HRP Substrate (Millipore) and developed on biomax XAR film (Kodak). Antibodies were purchased from Cell Signaling Technology: γH2AX (Ser139), p-Wee1 (Ser 642), Wee1, p-cdc2 (Tyr15), p-BRCA1 (Ser1524), p-Chk1 (Ser345), p-Chk1 (Ser317), Chk-1, phospho-Chk2 (Thr68), PP2Ac, cleaved caspase-3 (Asp175), cleaved PARP (Asp214), p-histone H3 (Ser10), p-ATR (Ser428), and p-(Ser)14-3-3 binding motif.

[8] = tested on: OVCAR-8 ovarian cancer cells; experiment: MTT cytotoxicity assay, OVCAR-8; format: cell-based, human; settings: Homo sapiens, OVCAR-8, OVCAR8, read-out: IC50, viability of ovarian cancer cell line
Procedure: as §3, §4

In the case of CN1CCN(C(=O)C2C(C(=O)O)[C@H]3CC[C@@H]2O3)CC1 (stereo partly shown) [LB100], the IC50 [1] is reported as 15.7 ± 1.3 µM, the “IC50s of transfected lines compared with parent cells or in the presence of tariquidar” value [2] is reported as “not different” and the IC50 [3] is reported as 5.7 µM. It also gave an IC50 [4] of 3.9 ± 0.9 µM, an IC50 [5] of 6.2 ± 1.5 µM and an IC50 [6] of 6.9 ± 1 µM. For the same compound, the “expression of p-Ser14-3-3 binding motifs compared to control treatment” value ([7]; LB100-treated SKOV-3 cells) was “widespread increased expression”, the “phosphorylation of γH2AX, Chk2, and BRCA1 at 24 h, and JNK at 72 h” value ([7]; SKOV-3, LB100) was “enhanced and prolonged” and the “phosphorylation of Wee-1 compared to control” value ([7]; SKOV-3, LB100 5 μM, 24 h) was “induced hyperphosphorylation”. It also gave an IC50 [8] of 5.5 ± 0.5 µM.
